From patent US20110269716A1, “ANTIOXIDANT COMPOUNDS AND METHODS OF THEIR USE” (priority 2008, published 2011)

Legend:
A-T cell line KT = assay: A-T cell survival assay (irradiated cells, Trypan blue count); format: cell-based, human; settings: 100 μM nitroxide, at least six hours before irradiation at 4 Gy, counted every 24 hours for 4 days
Procedure: Lymphoblastoid Cell Lines (LCL) of A-T cells and standard cells were used, which were incubated and cultured in the standard conditions. The cell lines of both A-T cells and standard cells were initially divided into four batches, the first batch was not irradiated and not exposed to nitroxide, second batch was irradiated in the absence of nitroxide, the third batch was not irradiated but was exposed to the nitroxide, and the last batch was irradiated in the presence of the nitroxide. All four aliquots were taken from the cultured medium and counted to ensure consistent numbers of cells were present in each aliquot used in the assay. In some experiments comparative experiments were performed with the known nitroxide antioxidant CTMIO. Cells that were treated by the nitroxide studied were exposed for at least six hours prior to the irradiation at the lethal dose of 4 Gy. After dilution, the final concentrations of the nitroxides were made to be 100 μM. Previous experiments have shown that nitroxides generally have minimal toxicity at the concentration of 100 μM, but to confirm this, cell growth was monitored in the presence of the nitroxides but without exposure to irradiation. From this it was evident that there was no significant cytotoxicity with any of the compounds studied.
The concentrations of the cell cultures were monitored every 24 hours after irradiation, for four days. This was conducted via a Trypan blue based assay using a bright-line hemacytometer and an optical microscope. Trypan blue solution enables the discrimination of live cells from dead cells, as the dye is completely absorbed by dead cells, but not by live cells. Under a bright-line hemacytometer, a glass slide specially designed to determine cell concentrations, the blue dead cells fade into the background, enabling the selective count of live cells under an optical microscope. […]
Cell survivability was determined by the ratio of cells irradiated to the cells without irradiation. […] Errors were calculated with 95% confidence intervals. […]

[1] = Log P by shake flask method (octanol/water, UV/vis at 230 nm); format: physicochemical
Procedure: The solubility and permeability of CTMIO and DCTEIO (Compound 1) were assessed using the shake flask method and UV/vis spectroscopy to measure distribution of the solute as follows:
A sample of octanol containing DCTEIO (3.34 mg, 1 mM) was added to a separating funnel with 10 mL water. The separating funnel was shaken for 5 minutes and the mixture was allowed to separate for 16 hours. Each phase (0.5 mL) was diluted with 5 mL of like solvent, water phase diluted with water and n-octanol phase diluted with n-octanol. This protocol was repeated for CTMIO. The absorbance of each sample was measured by UV/vis spectroscopy at 230 nm. The Log P value was calculated by the following equation: […]

PC-3 cells = assay: Biostability: EPR of conditioned media after exposure to cells; format: in vitro ADME; settings: after 96 hours of exposure to PC-3 cells vs media without cells
Procedure: PC-3 cells were seeded in tissue culture flasks (surface area ˜80 cm2). The cells were allowed to attach overnight. Following this, the cells were then treated with the desired concentration of CTMIO or DCTEIO (Compound 1) or vehicle (DMSO alone) i.e. 12 mL of media containing different nitroxide or vehicle was added to each flask. 5 mL of conditioned media (i.e. treatment media that had been incubated with the cells) were removed at 24 h and 96 h. At the 96 h time point, cells in the tissue culture flask were ˜100% confluent (i.e. the surface of the flask was covered by a monolayer of cells). The conditioned media that was removed from the flasks was placed in a falcon and centrifuged at 4° C. to remove any cellular debris that might have been present. The supernatant was then transferred to a new tube and the lid parafilmed to make it as airtight as possible. The tubes of conditioned media were stored at −20° C. until Electron Paramagnetic Resonance (EPR) analysis. […] The samples were run at X-band on a Bruker ELEXSYS E 580 FT/CW X-Band spectrometer at room temperature.

[2] = tested on: cells affected with Ataxia Telangiectasia (A-T); settings: Hosokawa et al. 2004; cited from earlier work

SMILES	survival of KT cells in the presence of irradiation (A-T cell line KT)	logP ([1]; n-octanol/water, shake flask, 1 mM)	EPR signal strength of the nitroxide (metabolic conversion to the non-radical hydroxylamine) (PC-3 cells)	Log P [1]	protective effect on radiation-induced oxidative stress [2]
CCC1(CC)c2cc(CP(=O)(O)O)c(CP(=O)(O)O)cc2C(CC)(CC)N1[O] [Compound (3), 5,6-Bis(methylene)diphosphonic acid-1,1,3,3-tetraethylisoindolin-2-yloxyl]	improves survival of KT cells	–	–	–	–
CCC1(CC)c2cc(C(=O)O)c(C(=O)O)cc2C(CC)(CC)N1[O] [Compound (1), 1,1,3,3-Tetraethyl-5,6-dicarboxylisondoline-2-yloxyl]	improves survival of KT cells	0.57	same signal strength	–	–
CC1(C)c2ccc(C(=O)O)cc2C(C)(C)N1[O] [CTMIO, 5-carboxy-1,1,3,3-tetramethyl-isoindolin-2-yloxyl, reference compound]	–	–	significant reduction in signal strength	−0.47	protective effect
CCC1(CC)c2cc(CO)c(CO)cc2C(CC)(CC)N1[O] [Compound (2), 5,6-Dihydroxymethyl-1,1,3,3-tetraethylisoindolin-2-yloxyl]	improves survival of KT cells	–	–	–	–
